Measurements taken from US10428044B2, “3-amino-1,5,6,7-tetrahydro-4H-indol-4-ones” (Bayer Pharma Aktiengesellschaft, priority 2014, dated 2019).

Molecular target: (recombinant) catalytic domain of human Bub1 (amino acids 704-1085) (Homo sapiens (Human), UniProt O43683)
Assay: Bub1 kinase assay (TR-FRET)
Type: biochemical
Conditions: ATP 10 μM final, peptide substrate 1 μM final, 60 min at 22° C., read-out: Biological Assay: Bub1 kinase assay median IC50
Procedure, shortened: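 Compounds were serially diluted 1:3.4 from 2 mM DMSO stocks and incubated with the enzyme reaction for 60 min at 22° C. The reaction was stopped with EDTA, and biotinylated peptide phosphorylation was read by TR-FRET using Eu anti-mouse IgG, anti-phosphoserine antibody and streptavidin-XL665. IC50 was fitted by 4-parameter logistic to inhibition normalized to no-inhibitor and no-enzyme controls.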

Chain of (recombinant) catalytic domain of human Bub1 (amino acids 704-1085) (O43683 704-1085): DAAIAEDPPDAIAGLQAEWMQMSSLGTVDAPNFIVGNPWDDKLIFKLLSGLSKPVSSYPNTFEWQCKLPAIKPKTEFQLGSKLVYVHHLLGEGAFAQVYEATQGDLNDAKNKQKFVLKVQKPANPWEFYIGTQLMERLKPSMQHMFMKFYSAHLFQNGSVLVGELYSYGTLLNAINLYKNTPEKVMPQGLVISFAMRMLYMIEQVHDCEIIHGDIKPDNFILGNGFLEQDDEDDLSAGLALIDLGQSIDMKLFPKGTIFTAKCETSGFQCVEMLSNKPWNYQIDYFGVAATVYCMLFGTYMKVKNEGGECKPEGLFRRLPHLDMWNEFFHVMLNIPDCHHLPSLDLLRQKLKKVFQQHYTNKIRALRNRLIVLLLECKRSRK

Structure (SMILES)	IC50
CC(C)C1CC(=O)c2c([nH]c(-c3ccnc(NC(=O)C4CC4)c3)c2Nc2ccc(F)c(F)c2)C1 (stereo not shown) [Example 324, N-{4-[3-[(3,4-difluorophenyl)amino]-4-oxo-6-(propan-2-yl)-4,5,6,7-tetrahydro-1H-indol-2-yl]pyridin-2-yl}cyclopropanecarboxamide]	26.4 nM
CC(=O)Nc1cc(-c2[nH]c3c(c2Nc2cccc(F)c2)C(=O)CCC3)ccn1 [Example 40, N-(4-{3-[(3-fluorophenyl)amino]-4-oxo-4,5,6,7-tetrahydro-1H-indol-2-yl}pyridin-2-yl)acetamide]	15.2 nM
C=CCOCC(=O)Nc1cc(-c2[nH]c3c(c2Nc2ccccc2)C(=O)CCC3)ccn1 [Example 335, N-{4-[4-oxo-3-(phenylamino)-4,5,6,7-tetrahydro-1H-indol-2-yl]pyridin-2-yl}-2-(prop-2-en-1-yloxy)acetamide]	9.9 nM
CC1(C)CC(=O)c2c([nH]c(-c3ccnc(N4CCCC4)c3)c2Nc2ccccc2)C1 [Example 126, 6,6-dimethyl-3-(phenylamino)-2-[2-(pyrrolidin-1-yl)pyridin-4-yl]-1,5,6,7-tetrahydro-4H-indol-4-one]	14500 nM
O=C1CCCc2[nH]c(-c3ccnc(C(F)F)c3)c(Nc3ccccc3)c21 [Example 401, 2-[2-(difluoromethyl)pyridin-4-yl]-3-(phenylamino)-1,5,6,7-tetrahydro-4H-indol-4-one]	354 nM
CC1(C)CC(=O)c2c([nH]c(-c3ccncc3)c2Nc2cccc(C3OCCO3)c2)C1 [Example 119, 3-{[3-(1,3-dioxolan-2-yl)phenyl]amino}-6,6-dimethyl-2-(pyridin-4-yl)-1,5,6,7-tetrahydro-4H-indol-4-one]	2340 nM
CC1(C)CC(=O)c2c([nH]c(-c3ccncc3)c2Nc2cccc(Cc3ccccc3)c2)C1 [Example 415, 3-[(3-benzylphenyl)amino]-6,6-dimethyl-2-(pyridin-4-yl)-1,5,6,7-tetrahydro-4H-indol-4-one]	283 nM
CC(C)C1CC(=O)c2c([nH]c(-c3ccnc(N)c3)c2Nc2ccccc2)C1 (stereo not shown) [Example 49, 2-(2-aminopyridin-4-yl)-3-(phenylamino)-6-(propan-2-yl)-1,5,6,7-tetrahydro-4H-indol-4-one]	13.1 nM
CC1(C)CC(=O)c2c([nH]c(-c3cc[n+](CC(F)F)cc3)c2Nc2ccccc2)C1 [Example 192, 4-[6,6-dimethyl-4-oxo-3-(phenylamino)-4,5,6,7-tetrahydro-1H-indol-2-yl]-1-(2,2-difluoroethyl)pyridinium trifluoromethanesulfonate]	1280 nM
COc1cccc(Nc2c(-c3ccncc3)[nH]c3c2C(=O)CC(C)(C)C3)c1OC [Example 56, 3-[(2,3-dimethoxyphenyl)amino]-6,6-dimethyl-2-(pyridin-4-yl)-1,5,6,7-tetrahydro-4H-indol-4-one]	654 nM
CC1(C)CC(=O)c2c([nH]c(-c3ccncc3)c2Nc2ccc(F)cc2CO)C1 [Example 485, 3-{[4-fluoro-2-(hydroxymethyl)phenyl]amino}-6,6-dimethyl-2-(pyridin-4-yl)-1,5,6,7-tetrahydro-4H-indol-4-one]	5.84 nM
CCC(=O)Nc1cc(-c2[nH]c3c(c2Nc2ccccc2)C(=O)CCC3)ccn1 [Example 225, N-{4-[4-oxo-3-(phenylamino)-4,5,6,7-tetrahydro-1H-indol-2-yl]pyridin-2-yl}propanamide]	26.7 nM
Cc1ccc(Cl)cc1Nc1c(-c2ccncc2)[nH]c2c1C(=O)CC(C)(C)C2 [Example 93, 3-[(5-chloro-2-methylphenyl)amino]-6,6-dimethyl-2-(pyridin-4-yl)-1,5,6,7-tetrahydro-4H-indol-4-one]	7400 nM
O=C1CCCc2[nH]c(-c3ccnc(NC(=S)NC4CCCC4)c3)c(Nc3ccccc3)c21 [Example 397, 1-cyclopentyl-3-{4-[4-oxo-3-(phenylamino)-4,5,6,7-tetrahydro-1H-indol-2-yl]pyridin-2-yl}thiourea]	1050 nM
CC1CC1C(=O)Nc1cc(-c2[nH]c3c(c2Nc2ccccc2)C(=O)CCC3)ccn1 (stereo not shown) [Example 237, 2-methyl-N-{4-[4-oxo-3-(phenylamino)-4,5,6,7-tetrahydro-1H-indol-2-yl]pyridin-2-yl}cyclopropanecarboxamide]	13.2 nM
O=C(Nc1cc(-c2[nH]c3c(c2Nc2ccccc2)C(=O)CCC3)ccn1)c1ncc[nH]1 [Example 274, N-{4-[4-oxo-3-(phenylamino)-4,5,6,7-tetrahydro-1H-indol-2-yl]pyridin-2-yl}-1H-imidazole-2-carboxamide]	48.2 nM
